Source: patent US12655116B2, “Substituted isophthalic acid diamides” (Bayer Aktiengesellschaft, priority 2020, dated 2026)

What was measured:
ALOMY [1] = experiment: Post-emergence herbicidal action against ALOMY; format: in vivo, Alopecurus myosuroides; details: Alopecurus myosuroides, 504 h, dosage 80 g/ha, visual assessment about 3 weeks after treatment vs untreated controls
Procedure, shortened: (§1)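 Greenhouse plants in sandy loam were sprayed at the one-leaf stage, 2 to 3 weeks after sowing, with WP or EC formulations as aqueous suspension or emulsion (600 to 800 l/ha water, 0.2% wetting agent). Visual damage was scored about 3 weeks later versus untreated controls, 0% = like control, 100% = dead.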

AVEFA [2] = experiment: Pre-emergence herbicidal action against AVEFA; format: in vivo, Avena fatua; details: Avena fatua, pre-emergence, 504 h; 320 g/ha; scored visually after 3 weeks, 100% = plants have died, 0% = like control plants
Procedure, shortened: (§2)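 Pre-emergence soil-surface spray of formulated compound (WP or EC; 600 to 800 l/ha; 0.2% wetting agent) over seeds sown in sandy loam. After 3 weeks under greenhouse conditions, damage is estimated visually in percent against untreated plants.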

CYPES [3] = experiment: Pre-emergence herbicidal action against CYPES; format: in vivo; details: Cyperus esculentus, 504 h
Source text: Seeds of monocotyledonous and dicotyledonous weed plants and crop plants are laid out in sandy loam soil in wood-fiber pots and covered with soil. The compounds of the invention, formulated in the form of wettable powders (WP) or as emulsion concentrates (EC), are then applied to the surface of the covering soil in the form of an aqueous suspension or emulsion at a water application rate equivalent to 600 to 800 l/ha, with addition of 0.2% wetting agent. After the treatment, the pots are placed in a greenhouse and kept under good growth conditions for the trial plants. The damage to the test plants is scored visually after a test period of 3 weeks by comparison with untreated controls (herbicidal activity in percent (%): 100% activity=the plants have died, 0% activity=like control plants). […] The tables below illustrate, in an illustrative manner, the post-emergence herbicidal action of the compounds of the invention, the herbicidal activity being stated in percent.

ABUTH [4] = experiment: Post-emergence herbicidal action against ABUTH; format: in vivo, Abutilon theophrasti; details: Abutilon theophrasti, 504 h, visual assessment about 3 weeks after treatment vs untreated controls
Procedure, shortened: as §1

VERPE [5] = experiment: Pre-emergence herbicidal action against VERPE; format: in vivo, Veronica persica; details: Veronica persica, 504 h, dosage 320 g/ha
Procedure, shortened: as §2

AMARE [6] = experiment: Pre-emergence herbicidal action against AMARE; format: in vivo, Amaranthus retroflexus; details: Amaranthus retroflexus, 504 h, 100% = plants have died, 0% = like control plants
Procedure, shortened: as §2

ALOMY [7] = experiment: Pre-emergence herbicidal action against ALOMY; format: in vivo, Alopecurus myosuroides; details: Alopecurus myosuroides, pre-emergence, 504 h; 320 g/ha; scored visually after 3 weeks, 100% = plants have died, 0% = like control plants
Procedure, shortened: as §2

ABUTH [8] = experiment: Pre-emergence herbicidal action against ABUTH; format: in vivo, Abutilon theophrasti; details: Abutilon theophrasti, 504 h
Procedure, shortened: as §2

AMARE [9] = experiment: Post-emergence herbicidal action against AMARE; format: in vivo, Amaranthus retroflexus; details: Amaranthus retroflexus, 504 h, 80 g/ha, visual assessment about 3 weeks after treatment, 100% = plants have died, 0% = like control plants
Procedure, shortened: as §1

AVEFA [10] = experiment: Post-emergence herbicidal action against AVEFA; format: in vivo, Avena fatua; details: Avena fatua, 504 h, 80 g/ha, visual assessment about 3 weeks after treatment, 100% = plants have died, 0% = like control plants
Procedure, shortened: as §1

SETVI [11] = experiment: Pre-emergence herbicidal action against SETVI; format: in vivo, Setaria viridis; details: Setaria viridis, 504 h, dosage 320 g/ha
Procedure, shortened: as §2

STEME [12] = experiment: Pre-emergence herbicidal action against STEME; format: in vivo, Stellaria media; details: Stellaria media, 504 h, dosage 320 g/ha
Procedure, shortened: as §2

VERPE [13] = experiment: Post-emergence herbicidal action against VERPE; format: in vivo, Veronica persica; details: Veronica persica, 504 h
Procedure, shortened: as §1

ECHCG [14] = experiment: Pre-emergence herbicidal action against ECHCG; format: in vivo, Echinochloa crus-galli; details: Echinochloa crus-galli, 504 h, 320 g/ha
Procedure, shortened: as §2

HORMU [15] = experiment: Pre-emergence herbicidal action against HORMU; format: in vivo, Hordeum murinum; details: Hordeum murinum, 504 h; 320 g/ha, pre-emergence
Procedure, shortened: as §2

CYPES [16] = experiment: Post-emergence herbicidal action against CYPES; format: in vivo, Cyperus esculentus; details: 80 g/ha, visual assessment about 3 weeks after treatment, 100% = plants have died, 0% = like control plants
Experimental: Seeds of monocotyledonous and dicotyledonous weed and crop plants are laid out in sandy loam soil in wood-fiber pots, covered with soil and cultivated in a greenhouse under good growth conditions. 2 to 3 weeks after sowing, the test plants are treated at the one-leaf stage. The compounds of the invention, formulated in the form of wettable powders (WP) or as emulsion concentrates (EC), are then sprayed onto the green parts of the plants in the form of an aqueous suspension or emulsion at a water application rate equivalent to 600 to 800 l/ha, with addition of 0.2% wetting agent. After the test plants have been left to stand in the greenhouse under optimal growth conditions for about 3 weeks, the action of the preparations is assessed visually in comparison to untreated controls (herbicidal action in percent (%): 100% activity=the plants have died, 0% activity=like control plants). […] The tables below illustrate, in an illustrative manner, the post-emergence herbicidal action of the compounds of the invention, the herbicidal activity being stated in percent.

VIOTR [17] = experiment: Post-emergence herbicidal action against VIOTR; format: in vivo, Viola tricolor; details: Viola tricolor, 504 h
Procedure, shortened: as §1

MATIN = experiment: Pre-emergence herbicidal action against MATIN; format: in vivo, Matricaria inodora; details: Tripleurospermum inodorum, 504 h, dosage 320 g/ha
Procedure, shortened: as §2

ECHCG [18] = experiment: Post-emergence herbicidal action against ECHCG; format: in vivo, Echinochloa crus-galli; details: Echinochloa crus-galli, 504 h, dosage 80 g/ha
Procedure, shortened: as §1

STEME [19] = experiment: Post-emergence herbicidal action against STEME; format: in vivo, Stellaria media; details: Stellaria media, 504 h, 80 g/ha
Procedure, shortened: as §1

VIOTR [20] = experiment: Pre-emergence herbicidal action against VIOTR; format: in vivo, Viola tricolor; details: Viola tricolor, 504 h, dosage 320 g/ha
Procedure, shortened: as §2

HORMU [21] = experiment: Post-emergence herbicidal action against HORMU; format: in vivo, Hordeum murinum; details: Hordeum murinum, 504 h, dosage 80 g/ha
Procedure, shortened: as §1

SETVI [22] = experiment: Post-emergence herbicidal action against SETVI; format: in vivo, Setaria viridis; details: Setaria viridis, 504 h
Procedure, shortened: as §1

Work on Cc1nnc(NC(=O)c2ccc(C(F)(F)F)c(C(N)=O)c2Cl)o1 [Example 6-253] yielded a pest or weed control at 80 g/ha (ALOMY [1]) of 80%, a pest or weed control at 320 g/ha (AVEFA [2]) of 90% and a pest or weed control at 20 g/ha (CYPES [3]; 20 g/ha, scored visually after 3 weeks, 100% = plants have died, 0% = like control plants) of 80%. The pest or weed control at 80 g/ha (CYPES [3]; 80 g/ha, scored visually after 3 weeks, 100% = plants have died, 0% = like control plants) was 90%, the pest or weed control at 320 g/ha (CYPES [3]; 320 g/ha) was 100% and the pest or weed control at 5 g/ha (ABUTH [4]; dosage 5 g/ha) was 100%. It also gave a pest or weed control at 20 g/ha (ABUTH [4]; dosage 20 g/ha) of 100%, a pest or weed control at 80 g/ha (ABUTH [4]; dosage 80 g/ha) of 100% and a pest or weed control at 320 g/ha (VERPE [5]) of 100%. The pest or weed control at 80 g/ha (AMARE [6]; 80 g/ha, scored visually after 3 weeks vs untreated controls) was 80%, the pest or weed control at 320 g/ha (AMARE [6]; 320 g/ha, scored visually after 3 weeks) was 90% and the pest or weed control at 320 g/ha (ALOMY [7]) was 90%. It also gave a pest or weed control at 80 g/ha (ABUTH [8]; 80 g/ha, scored visually after 3 weeks vs untreated controls (100% = plants have died, 0% = like control plants)) of 90%, a pest or weed control at 320 g/ha (ABUTH [8]; Dosage: 320 g/ha, scored visually after 3 weeks, 100% = plants have died, 0% = like control plants) of 100% and a pest or weed control at 80 g/ha (AMARE [9]) of 100%. It also gave a pest or weed control at 80 g/ha (AVEFA [10]) of 80%, a pest or weed control at 320 g/ha (SETVI [11]) of 100% and a pest or weed control at 320 g/ha (STEME [12]) of 100%. The pest or weed control at 20 g/ha (VERPE [13]; 20 g/ha) was 80%, the pest or weed control at 80 g/ha (VERPE [13]; 80 g/ha) was 90% and the pest or weed control at 320 g/ha (ECHCG [14]) was 100%. For the same compound, the pest or weed control at 320 g/ha (HORMU [15]) was 90%, the “Post-emergence action at 80 g/ha against CYPES in %” value (CYPES [16]) was 80% and the pest or weed control at 20 g/ha (VIOTR [17]; 20 g/ha) was 80%. It also gave a pest or weed control at 80 g/ha (VIOTR [17]; 80 g/ha) of 80%, a pest or weed control at 320 g/ha (MATIN) of 100% and a pest or weed control at 80 g/ha (ECHCG [18]) of 90%. For the same compound, the pest or weed control at 80 g/ha (STEME [19]) was 90%, the pest or weed control at 320 g/ha (VIOTR [20]) was 100% and the pest or weed control at 80 g/ha (HORMU [21]) was 90%. The pest or weed control at 20 g/ha (SETVI [22]; dosage 20 g/ha) was 90% and the pest or weed control at 80 g/ha (SETVI [22]; dosage 80 g/ha) was 100%.
